Assays:
p21 [1] = experiment: p21 expression, western blotting and immunofluorescence, SW480; type: cell-based, human; conditions: 24 h, 1 μM
Experimental: overnight at –20 °C. The pellet containing the nuclei was incubated with a hypertonic solution (10 mM Tris-HCl, 1 mM EDTA and 0.5 M NaCl) and subsequently diluted 1:10 with NP-40 buffer (10 mm Tris-HCl, 1 mm EDTA and 0.5% Triton X-100) containing protease inhibitors (1% PMSF, Sigma, and 1% protease and phosphatase inhibitor cocktail, Roche). After centrifugation (960 g, 5 min), the soluble nuclear (NE) proteins were also transferred into new tubes containing ice-cold ethanol (1 : 5, HPLC grade) and precipitated overnight at –20 °C.
The precipitated proteins were finally pelleted by centrifugation (5000 g, 30 min, 4 °C), the solution was decanted and the pellet dried under vacuum.
Samples were then dissolved in lysis buffer (8 M urea, 20% SDS, 1 M TEAB at pH 7.55) and denatured at 95 °C for 5 min. The protein amount was then quantified using a BCA assay. A total of 20 µg protein per sample was used for processing. Proteins were reduced with 50 µL of DTT (64 mM) and carbamidomethylated with 50 µL of iodoacetamide (486 mM). […]
and allowed to adhere overnight. […] For whole cell lysates, samples were collected, proteins isolated, and Western blotting performed as described in detail previously.5 In brief, protein concentration was determined using the Micro BCA™ Protein Assay Kit (Thermo Fisher Scientific, Waltham, MA, USA). […]

TP53 = experiment: Immunofluorescence staining of TP53; type: cell-based, human; conditions: SW480, 24 h; 1a 1 μM; etoposide 100 nM
Experimental: (§1) Cell Signaling Technology (Danvers, MA, USA), respectively. Horseradish-peroxidase-linked secondary antibodies, anti-mouse IgG (Fc specific) antibody (#7076S) and anti-rabbit IgG antibody (#7074S) were purchased from Cell Signaling Technology (Danvers, MA, USA). Anti-ß-actin (AC-15) (A5441, 1:2000) was obtained from Sigma-Aldrich (St. Louis, MO, USA).
(§2) SW480 and CT26 cells were grown at a density of 6.7x10^4 cells/mL on 8-well glass coverslips (80841, ibidi GmbH, Gräfelfing, Germany) in 300 µL complete media. The next day, cells were treated with respective compounds for 24 h. Cells were fixed with 4%(v/v) paraformaldehyde for 15 min at RT, followed by washing, blocking and permeabilization with 5%(w/v) BSA and […]
(§3) (1 : 500) were diluted in 1% BSA-0.3% Triton-X-100 in PBS and incubated overnight at 4 °C.
(§4) One well was incubated without primary antibody as background control. Cells were washed and stained with secondary goat anti-mouse AlexaFlour-488 (1 : 500 dilution, A-11029, Thermo Fisher Scientific) or goat anti-rabbit AlexaFlour-488 (1 : 500 dilution, A-11034, Thermo Fisher Scientific) antibodies for 1 h at RT. Following, cells were stained with 0.2% Wheat Germ Agglutinin (WGA)-Rhodamine (RL-1022, Vector Laboratories, Inc.) and 0.1% DAPI (62248, Thermo Fisher Scientific) for staining of plasma membrane and nuclei, respectively, according to manufacturer’s recommendations. […]

p21 [2] = experiment: p21 expression, immunofluorescence, CT26; type: cell-based, murine; conditions: 24 h, 1 μM
Experimental: as §1, §2, §3, §4

CCC1=C2[O][Ru][O]C2(n2cccn2)c2ccccc2C1=O.Cc1ccc(C(C)C)cc1 (stereo not drawn) [Compound 1a, [(3-ethyl-4-oxo-(pyrazolyl)-dihydronaphthalene)(cymene)ruthenium(II)]]
p21 expression, SW480 (p21 [1]): significantly reduced p21 expression
TP53 immunofluorescence signal (TP53): decisive loss of TP53 signal intensity
p21 expression, CT26 (p21 [2]): significantly reduced p21 expression

— paper PMC12320299 (Chemical Science, 2025)
